Patent US8946438B2, “Benzamides, production thereof, and use thereof as medicaments” (Boehringer Ingelheim International GmbH, priority 2008, dated 2015)

biological target: p38 MAP-kinase (Homo sapiens, UniProt Q16539); test: Enzymatic assay: inhibition of p38 MAP-kinase (phosphorylation of GST-tagged ATF2, chemoluminescence bead readout); format: biochemical; conditions: inhibitor 1 μM; activated p38 MAP-kinase 1 nM; 4 h preincubation; ATP 100 μM; ATF2 10 nM; read-out: % inhibitory effect at 1 μM
How it was run: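 Activated human p38 MAP-kinase (1 nM) preincubated 4 h at ambient temperature with compound at 1 μM in HEPES pH 7, MgCl2, DTT, Tween20. Then reacted 1 h with GST-ATF2 (10 nM) and ATP (100 μM). Phospho-ATF2 read by bead chemoluminescence at 520-620 nm, given as % inhibition at 1 μM versus kinase-free background.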

p38 MAP-kinase, sequence (Q16539 whole entry): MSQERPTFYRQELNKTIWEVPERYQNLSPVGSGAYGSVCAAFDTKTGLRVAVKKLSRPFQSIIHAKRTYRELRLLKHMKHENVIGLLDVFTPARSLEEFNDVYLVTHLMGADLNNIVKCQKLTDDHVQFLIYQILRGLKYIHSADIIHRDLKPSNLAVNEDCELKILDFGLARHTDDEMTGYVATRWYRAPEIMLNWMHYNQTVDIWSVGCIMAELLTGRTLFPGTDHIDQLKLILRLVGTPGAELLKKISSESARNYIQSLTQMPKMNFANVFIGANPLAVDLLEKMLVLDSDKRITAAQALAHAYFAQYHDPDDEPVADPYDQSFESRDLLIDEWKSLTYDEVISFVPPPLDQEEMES

| Compound | inhibition at 1 µM |
| --- | --- |
| COc1c(NC(=O)c2ccc(C)c(Oc3ccnc(N(C)C4CCN(C)C4)n3)c2)cc(C(C)(C)C)cc1NS(C)(=O)=O (stereo not drawn) [4(19), N-(5-tert-butyl-3-methanesulphonylamino-2-methoxy-phenyl)-4-methyl-3-{2-[methyl-(1-methyl-pyrrolidin-3-yl)-amino]-pyrimidin-4-yloxy}-benzamide] | 98.6% |
| CNCc1cc(Oc2cc(C(=O)Nc3cc(C(C)(C)C)cc(NS(C)(=O)=O)c3OC)ccc2C)ccn1 [8(14), N-(5-tert-butyl-3-methanesulphonylamino-2-methoxy-phenyl)-4-methyl-3-(2-methylaminomethyl-pyridin-4-yloxy)-benzamide] | 91.1% |
| COc1c(NC(=O)c2ccc(C)c(Oc3ccnc(CNC4CCN(C)CC4)n3)c2)cc(C(C)(C)C)cc1NS(C)(=O)=O [8(17), N-(5-tert-butyl-3-methanesulphonylamino-2-methoxy-phenyl)-4-methyl-3-{2-[(1-methyl-piperidin-4-ylamino)-methyl]-pyrimidin-4-yloxy}-benzamide] | 96.7% |
| COc1c(NC(=O)c2ccc(C)c(Oc3ccnc(CN4CC[C@H](O)C4)c3)c2)cc(C(C)(C)C)cc1NS(C)(=O)=O [8(13), (S)-N-(5-tert-butyl-3-methanesulphonylamino-2-methoxy-phenyl)-3-[2-(3-hydroxy-pyrrolidin-1-ylmethyl)-pyridin-4-yloxy]-4-methyl-benzamide] | 96.8% |
| COc1c(NC(=O)c2ccc(Cl)c(Oc3cc(CNCCN(C)C)ncn3)c2)cc(C(C)(C)C)cc1NS(C)(=O)=O [8(31), N-(5-tert-butyl-3-methanesulphonylamino-2-methoxy-phenyl)-4-chloro-3-{6-[(2-dimethylamino-ethylamino)-methyl]-pyrimidin-4-yloxy}-benzamide] | 86.5% |
| COc1c(NC(=O)c2ccc(Cl)c(Oc3ccnc(CNCCN(C)C)c3)c2)cc(C(C)(C)C)cc1NS(C)(=O)=O [8(34), N-(5-tert-butyl-3-methanesulphonylamino-2-methoxy-phenyl)-4-chloro-3-{2-[(2-dimethylamino-ethylamino)-methyl]-pyridin-4-yloxy}-benzamide] | 99.3% |
| COc1c(NC(=O)CC(C)C)cc(C(C)(C)C)cc1NC(=O)c1ccc(C)c(Oc2ccnc(CC3CCNCC3)c2)c1 [11(4), N-[5-tert-butyl-2-methoxy-3-(3-methyl-butyrylamino)-phenyl]-4-methyl-3-(2-piperidin-4-ylmethyl-pyridin-4-yloxy)-benzamide] | 95.1% |
| COc1c(NC(=O)c2ccc(C)c(Oc3ccnc(NCCN4CCCC4)n3)c2)cc(C(C)(C)C)cc1NS(C)(=O)=O [Example 4, N-(5-tert-butyl-3-methanesulphonylamino-2-methoxy-phenyl)-4-methyl-3-[2-(2-pyrrolidin-1-yl-ethylamino)-pyrimidin-4-yloxy]-benzamide] | 97.7% |
| COc1c(NC(=O)c2ccc(C)c(Oc3ccnc(CC4CCCNCC4)c3)c2)cc(C(C)(C)C)cc1NS(C)(=O)=O (stereo not drawn) [5(52), 3-(2-azepan-4-ylmethyl-pyridin-4-yloxy)-N-(5-tert-butyl-3-methanesulphonylamino-2-methoxy-phenyl)-4-methyl-benzamide] | 99.5% |
| COc1c(NC(=O)c2ccc(C)c(Oc3cc(CC4CCCNCC4)ncn3)c2)cc(C(C)(C)C)cc1NS(C)(=O)=O (stereo not drawn) [5(54), 3-(6-azepan-4-ylmethyl-pyrimidin-4-yloxy)-N-(5-tert-butyl-3-methanesulphonylamino-2-methoxy-phenyl)-4-methyl-benzamide] | 99.7% |
| COc1c(NC(=O)c2ccc(C)c(Oc3ccnc(N(C)C4CCNCC4)n3)c2)cc(C(C)(C)C)cc1NS(C)(=O)=O [5(14), N-(5-tert-butyl-3-methanesulphonylamino-2-methoxy-phenyl)-4-methyl-3-[2-(N-methyl-N-piperidin-4-yl-amino)-pyrimidin-4-yloxy]-benzamide] | 98.5% |
| COc1c(NC(=O)c2ccc(Cl)c(Oc3ccnc(NC4CCN(C)CC4)n3)c2)cc(C(C)(C)C)cc1NS(C)(=O)=O [4(15), N-(5-tert-butyl-3-methanesulphonylamino-2-methoxy-phenyl)-4-chloro-3-[2-(1-methyl-piperidin-4-ylamino)-pyrimidin-4-yloxy]-benzamide] | 99.6% |
